{"source": "patent US20110262464A1", "about": "“Compositions, Kits, and Methods for the Diagnosis, Prognosis, and Monitoring of Cancer Using GOLPH3” (DANAFARBER CANCER INSTITUTE, INC., priority 2008, published 2011)", "key": {"[1]": {"test_system": "WM239A melanoma xenograft tumors", "assay": "In vivo rapamycin treatment of xenograft tumors", "parameters": "species or system mouse", "details": "WM239A-GOLPH3 tumors; rapamycin 6.0 mg/kg i.p. every other day; day 8, post 4 doses", "protocol": "(§1) For in vivo rapamycin studies, melanoma 1205LU and WM239A cells verified to stably-express empty vector or GOLPH3 were subcutaneously implanted into female nude animals (Taconic) at 5.0×10^5 cells/site on both flanks. Tumors were allowed to reach approximately 100 mm^3, after which time animals were randomized into separate cohorts for treatment with vehicle [5% (vol/vol) PEG400.5% (vol/vol) Tween-80) or rapamycin (6 mg/kg; LC Laboratories; 50 mg/ml stock prepared in 100% ETOH and diluted fresh in vehicle solvent for treatment) by intraperitoneal injection every other day. Tumor volumes and body weights were measured upon drug administration. Tumor volume was determined by measuring in two directions with vernier calipers and formulated as tumor volume=[…]. Growth curves were plotted as mean change in tumor volume for each group, where mean change indicates change in tumor volume at a given time point minus tumor volume at time of initial dose administration. Endpoint scatter plots were plotted as proportion of final dose endpoint tumor volume over respective tumor baseline starting volume. Percent tumor growth inhibition was determined as (1-(T/N))×100, where T is the mean change in tumor volume of the treated group and N is the mean change in tumor volume of the control group at the assay endpoint. Two-tailed t-test calculations were performed using Prism 4 (Graphpad)."}, "[2]": {"test_system": "1205LU melanoma xenograft tumors", "assay": "In vivo rapamycin treatment of xenograft tumors", "parameters": "species or system mouse", "details": "1205LU-GOLPH3 tumors; rapamycin 6.0 mg/kg i.p. every other day; day 8, post 4 doses", "protocol": "as §1"}}, "data": [{"smiles": "CO[C@H]1C[C@@H]2CC[C@@H](C)[C@@](O)(O2)C(=O)C(=O)N2CCCC[C@H]2C(=O)O[C@H]([C@H](C)C[C@@H]2CC[C@@H](O)[C@H](OC)C2)CC(=O)[C@H](C)/C=C(\\C)[C@@H](O)[C@@H](OC)C(=O)[C@H](C)C[C@H](C)/C=C/C=C/C=C/1C", "note": "[rapamycin]", "values": [{"measurement": "percent tumor growth inhibition (% TGI)", "setting": "[1]", "result": 80.9, "unit": "%"}, {"measurement": "percent tumor growth inhibition (% TGI)", "setting": "[2]", "result": 81.9, "unit": "%"}]}]}
